Assays:
Experiment in all cases: relative viability (nuclei count vs DMSO), 5 days (fraction); higher = more cells survive
AZ628 + Alpelisib = compound: CC1=C(C=C(C=C1)NC(=O)C2=CC(=CC=C2)C(C)(C)C#N)NC3=CC4=C(C=C3)N=CN(C4=O)C [AZ628] + Cc1nc(NC(=O)N2CCC[C@H]2C(N)=O)sc1-c1ccnc(C(C)(C)C(F)(F)F)c1 [Alpelisib] (partner 2 µM)
Procedure, shortened: (§1)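 Lung cancer cell lines in 1536-well plates got either a single drug or a fixed anchor-drug dose together with five library-drug doses (not always all listed) in √10 steps, by pin tool, on the day after seeding. Nuclei were counted after 5 days, and relative viability is the treated-to-vehicle ratio of nuclei counts. Values are medians of duplicate plates.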

[1] = compound: C[As](C)SC[C@H](NC(=O)CC[C@H](N)C(=O)O)C(=O)NCC(=O)O [Darinaparsin] + CC(=O)c1c(C)c2cnc(Nc3ccc(N4CCNCC4)cn3)nc2n(C2CCCC2)c1=O [Palbociclib] (partner 0.5 µM)
Procedure, shortened: as §1

[2] = compound: C[As](C)SC[C@H](NC(=O)CC[C@H](N)C(=O)O)C(=O)NCC(=O)O [Darinaparsin] + O=C(CCCCCCC(=O)Nc1ccccc1)NO [Vorinostat] (partner 1 µM)
Procedure, shortened: as §1

AZ628 + Decitabine = compound: CC1=C(C=C(C=C1)NC(=O)C2=CC(=CC=C2)C(C)(C)C#N)NC3=CC4=C(C=C3)N=CN(C4=O)C [AZ628] + Nc1ncn([C@H]2C[C@H](O)[C@@H](CO)O2)c(=O)n1 [Decitabine] (partner 2 µM)
Procedure, shortened: as §1

| Cell Line | relative viability (AZ628 + Alpelisib; first compound 0.08 µM) | relative viability (AZ628 + Alpelisib; first compound 0.253 µM) | relative viability (AZ628 + Alpelisib; first compound 0.8 µM) | relative viability (AZ628 + Alpelisib; first compound 2.53 µM) | relative viability (AZ628 + Alpelisib; first compound 8 µM) | relative viability ([1]; first compound 0.08 µM) | relative viability ([1]; first compound 0.8 µM) | relative viability ([1]; first compound 2.53 µM) | relative viability ([1]; first compound 8 µM) | relative viability ([2]; first compound 0.08 µM) | relative viability ([2]; first compound 0.8 µM) | relative viability ([2]; first compound 2.53 µM) | relative viability ([2]; first compound 8 µM) | relative viability (AZ628 + Decitabine; first compound 0.08 µM) | relative viability (AZ628 + Decitabine; first compound 0.253 µM) | relative viability (AZ628 + Decitabine; first compound 0.8 µM) | relative viability (AZ628 + Decitabine; first compound 2.53 µM) | relative viability (AZ628 + Decitabine; first compound 8 µM) |
| --- | --- | --- | --- | --- | --- | --- | --- | --- | --- | --- | --- | --- | --- | --- | --- | --- | --- | --- |
| PC-3 [JPC-3] | 1.01 | 1.08 | 1.06 | 1.11 | 0.97 | 0.553 | 0.516 | 0.542 | 0.547 | 0.903 | 0.739 | 0.945 | 0.872 | 0.86 | 0.813 | 0.924 | 0.827 | 0.642 |
| PC-14 | 1 | 0.854 | 0.923 | 1.01 | 0.751 | 0.661 | 0.53 | 0.365 | 0.462 | 0.691 | 0.753 | 0.545 | 0.572 | 0.255 | 0.228 | 0.168 | 0.19 | 0.166 |
| RERF-LC-KJ | 0.721 | 0.912 | 0.749 | 0.719 | 0.597 | 1.13 | 1.11 | 1.02 | 1.08 | 0.686 | 0.742 | 0.563 | 0.723 | 0.698 | 0.708 | 0.644 | 0.647 | 0.688 |
| SK-LU-1 | 0.733 | 1.12 | 0.802 | 0.934 | 0.512 | 0.381 | 0.338 | 0.339 | 0.347 | 0.742 | 0.784 | 0.591 | 0.702 | 0.549 | 0.55 | 0.505 | 0.577 | 0.391 |
| SK-MES-1 | 0.821 | 0.956 | 0.823 | 0.779 | 0.674 | 0.308 | 0.303 | 0.298 | 0.314 | 1.11 | 1.07 | 0.924 | 1.43 | 0.448 | 0.379 | 0.434 | 0.43 | 0.338 |
| SW 1573 | 0.787 | 0.742 | 0.693 | 0.567 | 0.538 | 0.412 | 0.353 | 0.355 | 0.488 | 0.837 | 0.754 | 0.653 | 0.738 | 0.503 | 0.445 | 0.435 | 0.408 | 0.374 |
| UMC-11 | 1 | 0.987 | 0.949 | 1.13 | 1.1 | 0.309 | 0.342 | 0.295 | 0.345 | 0.339 | 0.314 | 0.384 | 0.308 | 0.704 | 0.65 | 0.551 | 0.556 | 0.758 |

From the supplement of paper PMC10307832
